From patent US20240374587A1, “MEDICINE FOR PREVENTION AND TREATMENT OF DISEASES LINKED TO ANTI-OBESITY ACTIVITY” (Shionogi & Co., Ltd., priority 2021, published 2024)

Legend:
[1] = test system: C57BL/6j mice (DIO mice); assay: Anti-obesity effect test in DIO mice (body weight, food consumption); type: in vivo; design: concentration or dose not given beside the values; settings: for Rate of decrease in body weight relative to control group: at final administration (Day 0 to Day 35, once a day)
Experimental: The anti-obesity effect of the compound and/or agent according to the present invention was examined by using C57BL/6j mice (DIO mice) provided with a high-fat diet (TestDiet; 58Y1).
Five-week-old male C57BL/6j mice (CLEA Japan. Inc.) were purchased, and grown with feeding of a high-fat diet under 12-hour light-dark cycles for 4 weeks to produce DIO mice. A medium (0.5% HPMC and physiological saline) was administered once a day from 3 weeks before administration of the compound. Randomization was performed for grouping (n=9 to 10) on the basis of body weight and change in food consumption during the period of administration for conditioning. From Day 0 to Day 35, gavage of vehicle (0.5% HPMC and physiological saline) (hereinafter, Control group), gavage of Compound (A) according to the present invention (hereinafter, (A)-administration group), subcutaneous administration of GLP-1 formulation (liraglutide or semaglutide) as Compound (B) according to the present invention (hereinafter, (B)-administration group), or both (hereinafter, the combined administration group) were performed once a day. The GLP-1 formulation was formulated in an increasing dose, and liraglutide and semaglutide were administered at 4 to 20 μg/kg and:3 to 15 μg/kg, respectively, once a day. During the administration period, daily body weight measurement and food consumption measurement once a week were performed.

[2] = molecular target: human MGAT2 (Homo sapiens (Human), UniProt Q3SYC2); assay: Measurement of human MGAT2 inhibitory activity; type: biochemical; settings: concentration exhibiting 50% enzyme inhibition
Experimental: Solutions of the compounds of the present invention in DMSO were each aliquoted into 0.2·μL portions in a 384-well polystyrene microplate produced by Corning Incorporated, and 5 μL of an enzyme solution prepared with an assay buffer (100 mmol/L phosphate buffer (pH 7.4) containing 2 mmol/L DTT) and 5 μL of a substrate solution (100 mmol/L phosphate buffer (pH 7.4), 30 μmol/L 2-Oleoylglycerol, 10 μmol/L Oleoyl-CoA) were added thereto, and the resultant was stirred and centrifuged, and incubated in a moist chamber at room temperature for 1 hour. After enzymatic reaction, 50 μL of a quenching solution (containing 0.2 μmol/L Diolein-d5, 0.4% formic acid, and 50% isopropanol) containing Internal Standard (IS) was added to terminate the reaction, and the resultant was sealed in a plate produced by Shimadzu GLC Ltd., and then stirred and centrifuged, and measurement was performed by using an electrospray ionization method with a RapidFire360 and Agilent 6550 Q-TOF mass spectrometer. Diolein as a reaction product (P) of 2-Oleoylglycerol as the substrate and an ammonium adduct ion of the IS were detected, and the peak intensity ratio, P/IS, was calculated from the peak heights to evaluate the inhibitory activity. Inhibitory activities with/without addition of enzyme were defined as Control (+)/Control (−), respectively, and the respective % inhibitions were defined as 0% inhibition and 100% inhibition. The inhibitory activity was calculated from the formula below with TIBCO Spotfire (produced by TIBCO Software Inc.) with the peak intensity ratio, P/IS, at the time of addition of the compound of the present invention being as Sample: […]

human MGAT2, sequence (Q3SYC2 whole entry): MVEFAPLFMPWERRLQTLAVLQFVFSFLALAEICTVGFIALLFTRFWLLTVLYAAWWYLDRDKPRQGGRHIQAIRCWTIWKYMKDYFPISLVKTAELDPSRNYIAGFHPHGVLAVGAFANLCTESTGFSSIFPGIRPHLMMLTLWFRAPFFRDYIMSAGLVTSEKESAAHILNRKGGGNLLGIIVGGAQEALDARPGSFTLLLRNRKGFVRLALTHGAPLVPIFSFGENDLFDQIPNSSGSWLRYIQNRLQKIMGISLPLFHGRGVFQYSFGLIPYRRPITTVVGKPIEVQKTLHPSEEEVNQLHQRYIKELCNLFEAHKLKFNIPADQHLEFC

CS(=O)(=O)CC(=O)Nc1c2c(nn1CCCOC(F)(F)F)C[C@@]1(CCOc3cc(OCC(F)(F)F)ccc31)NC2=O [II-121]
Rate of decrease in food consumption relative to control group ([1]; 1st week of administration, liraglutide study): 18.9%
Rate of decrease in food consumption relative to control group ([1]; 1st week of administration, semaglutide study): 15.7%
Rate of decrease in food consumption relative to control group ([1]; 2nd week of administration, liraglutide study): 12.7%
Rate of decrease in food consumption relative to control group ([1]; 2nd week of administration, semaglutide study): 10.5%
Rate of decrease in food consumption relative to control group ([1]; 3rd week of administration, liraglutide study): 9.9%
Rate of decrease in food consumption relative to control group ([1]; 3rd week of administration, semaglutide study): 7.3%
Rate of decrease in food consumption relative to control group ([1]; 4th week of administration, liraglutide study): 8.5%
Rate of decrease in food consumption relative to control group ([1]; 4th week of administration, semaglutide study): 3.9%
Rate of decrease in food consumption relative to control group ([1]; 5th week of administration, liraglutide study): 7.5%
Rate of decrease in food consumption relative to control group ([1]; 5th week of administration, semaglutide study): 1.6%
Rate of decrease in body weight relative to control group ([1]; liraglutide study (FIG. 1)): 10.0%
Rate of decrease in body weight relative to control group ([1]; semaglutide study (FIG. 2)): 5.5%
IC50 [2]: 2.91 nM
